Laboratory results from PubChem BioAssay AID248 (DTP/NCI, 2004).
Values joined by “and” are separate entries in the source; they are usually repeats but may differ in a detail not shown here. Equal entries are not always repeated. Toxic doses and inconclusive results are not listed. No stated cut-off is given here; in the data, active means T/C of 150% or more; inactive means T/C below 125%.

System: L1210 leukemia ip in BDF1 mice, survival T/C
Experiment: NCI In Vivo Anticancer Drug Screen. Data for tumor model L1210 Leukemia (intraperitoneal) in B6D2F1 (BDF1) mice
Conditions: endpoint: mean survival time, higher = longer survival
Summary of the method: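 Value reflects the ratio of survival in compound-treated mice to survival in vehicle-treated controls, with both groups carrying the same transplanted tumor.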

[1] = dose: 100.0 mg/kg/injection, schedule: Q01DX001 (ip), vehicle: carboxymethylcellulose (CMC)
[2] = dose: 200.0 mg/kg/injection, schedule: Q01DX001 (ip), vehicle: carboxymethylcellulose (CMC)
[3] = dose: 400.0 mg/kg/injection, schedule: Q01DX001 (ip), vehicle: carboxymethylcellulose (CMC)
[4] = dose: 100.0 mg/kg/injection, schedule: Q04DX003 (ip), vehicle: saline with Tween-80
[5] = dose: 400.0 mg/kg/injection, schedule: Q04DX003 (ip), vehicle: saline with Tween-80
[6] = dose: 100.0 mg/kg/injection, schedule: Q01DX009 (ip), vehicle: Klucel (hydroxypropylcellulose) (HPC)
[7] = dose: 200.0 mg/kg/injection, schedule: Q01DX009 (ip), vehicle: Klucel (hydroxypropylcellulose) (HPC)
[8] = dose: 400.0 mg/kg/injection, schedule: Q01DX009 (ip), vehicle: Klucel (hydroxypropylcellulose) (HPC)
[9] = dose: 25.0 mg/kg/injection, schedule: Q01DX009 (ip), vehicle: saline
[10] = dose: 50.0 mg/kg/injection, schedule: Q01DX009 (ip), vehicle: saline
[11] = dose: 100.0 mg/kg/injection, schedule: Q04DX003 (ip), vehicle: saline
[12] = dose: 25.0 mg/kg/injection, schedule: Q04DX003 (ip), vehicle: saline
[13] = dose: 50.0 mg/kg/injection, schedule: Q04DX003 (ip), vehicle: saline

Measured: T/C

O=C1CCC(=O)N1c1ccc(I)cc1
inactive: dose: 50.0 mg/kg/injection, schedule: Q01DX001 (ip), vehicle: carboxymethylcellulose (CMC) 96 % of control | [1] 98 % of control | [2] 93 % of control | [3] 107 % of control

OCCOc1cccc(OCCO)c1
inactive: [4] 103 % of control | dose: 200.0 mg/kg/injection, schedule: Q04DX003 (ip), vehicle: saline with Tween-80 104 % of control | [5] 92 % of control

CC1(C)C/C(=C\c2cccc(Br)c2)C(=O)c2ccccc21
inactive: [6] 104 % of control | dose: 100.0 mg/kg/injection, schedule: Q04DX003 (ip), vehicle: Klucel (hydroxypropylcellulose) (HPC) 98 % of control | [7] 98 % of control | dose: 200.0 mg/kg/injection, schedule: Q04DX003 (ip), vehicle: Klucel (hydroxypropylcellulose) (HPC) 106 % of control | [8] 103 % of control | dose: 400.0 mg/kg/injection, schedule: Q04DX003 (ip), vehicle: Klucel (hydroxypropylcellulose) (HPC) 101 % of control

c1ccc2c(c1)CNCc1ccccc1-2
inactive: [9] 92 % of control | [10] 105 % of control | dose: 100.0 mg/kg/injection, schedule: Q01DX009 (ip), vehicle: saline 96 % of control | [11] 105 % of control

COc1ccccc1/C=C(\C#N)c1cccc2ccccc12
inactive: dose: 25.0 mg/kg/injection, schedule: Q04DX002 (ip), vehicle: Klucel (hydroxypropylcellulose) (HPC) 118 % of control | dose: 50.0 mg/kg/injection, schedule: Q04DX002 (ip), vehicle: Klucel (hydroxypropylcellulose) (HPC) 93 % of control | [6] 94 % of control | dose: 100.0 mg/kg/injection, schedule: Q04DX002 (ip), vehicle: Klucel (hydroxypropylcellulose) (HPC) 107 % of control | [7] 89 % of control | [8] 90 % of control

CC1OC(CO)C(O)C(O)C1NC(=O)c1ccccc1 (configuration not stated)
inactive: dose: 50.0 mg/kg/injection, schedule: Q01DX009 (ip), vehicle: saline with Tween-80 98 % of control | dose: 100.0 mg/kg/injection, schedule: Q01DX009 (ip), vehicle: saline with Tween-80 103 % of control | dose: 200.0 mg/kg/injection, schedule: Q01DX009 (ip), vehicle: saline with Tween-80 103 % of control

CC1=NN(c2ccccc2)C(=O)C1N=Nc1ccc(S(=O)(=O)Nc2nccc(C)n2)cc1 (configuration not stated)
inactive: [1] 98 % of control | [2] 98 % of control | [3] 88 % of control

CC/C(=C(\CC)c1ccc(OCCN(CCCl)CCCl)cc1)c1ccc(OCCN(CCCl)CCCl)cc1
inactive: dose: 25.0 mg/kg/injection, schedule: Q04DX002 (ip), vehicle: saline with Tween-80 90 % of control | dose: 50.0 mg/kg/injection, schedule: Q04DX002 (ip), vehicle: saline with Tween-80 94 % of control | dose: 100.0 mg/kg/injection, schedule: Q04DX002 (ip), vehicle: saline with Tween-80 101 % of control

CCCCCCCCCCCCCCCC(=O)N(CCCN)CCCN
inactive: dose: 12.5 mg/kg/injection, schedule: Q01DX009 (ip), vehicle: saline with Tween-80 109 % of control | dose: 12.5 mg/kg/injection, schedule: Q04DX003 (ip), vehicle: saline 98 % of control | [12] 103 % of control | [13] 101 % of control

CC(C)NC(=O)Oc1cccc(NC(=O)C(C)C)c1
inactive: dose: 25.0 mg/kg/injection, schedule: Q04DX003 (ip), vehicle: saline with Tween-80 101 % of control | dose: 50.0 mg/kg/injection, schedule: Q04DX003 (ip), vehicle: saline with Tween-80 92 % of control | [4] 92 % of control and 95 % of control | [5] 89 % of control

Clc1cc2nc3[nH]c4ccccc4c3nc2cc1Cl
inactive: dose: 100.0 mg/kg/injection, schedule: Q01DX001 (ip), vehicle: saline 97 % of control

[Cl][Gd]([Cl])[Cl]
inactive: [11] 94 % of control | dose: 200.0 mg/kg/injection, schedule: Q04DX003 (ip), vehicle: saline 115 % of control | dose: 400.0 mg/kg/injection, schedule: Q04DX003 (ip), vehicle: saline 95 % of control

CCOC(=O)c1nc2c(C)nc(N(C)C)nc2n(C)c1=O
inactive: dose: 100.0 mg/kg/injection, schedule: Q01DX001 (ip), vehicle: Klucel (hydroxypropylcellulose) (HPC) 100 % of control | dose: 200.0 mg/kg/injection, schedule: Q01DX001 (ip), vehicle: Klucel (hydroxypropylcellulose) (HPC) 97 % of control | dose: 400.0 mg/kg/injection, schedule: Q01DX001 (ip), vehicle: Klucel (hydroxypropylcellulose) (HPC) 94 % of control

C[N+](C)(C)C1CC1
inactive: dose: 12.5 mg/kg/injection, schedule: Q01DX009 (ip), vehicle: saline 94 % of control | [9] 98 % of control | [12] 93 % of control | [10] 96 % of control and 102 % of control | [13] 103 % of control
